Test results published in ChEMBL document CHEMBL1697731, “Cheminformatics analysis of assertions mined from literature that describe drug-induced liver injury in different species” (Chem Res Toxicol, 2010).

Tests used:
Hepatotoxicity [1] = experiment: Literature-mined compound from Fourches et al multi-species drug-induced liver injury (DILI) dataset, effect in humans; settings: human
Hepatotoxicity [2] = experiment: Literature-mined compound from Fourches et al multi-species drug-induced liver injury (DILI) dataset, effect in rodents; settings: rodentia
Hepatotoxicity [3] = experiment: Literature-mined compound from Fourches et al multi-species drug-induced liver injury (DILI) dataset, effect in non-rodents

For COC(=O)c1ccccc1O [METHYL SALICYLATE], the Hepatotoxicity (Hepatotoxicity [1]) was “no drug-induced liver injury reported”, the Hepatotoxicity (Hepatotoxicity [2]) was “no drug-induced liver injury reported” and the Hepatotoxicity (Hepatotoxicity [3]) was “drug-induced liver injury reported”.
For NC(=O)NC1NC(=O)NC1=O (centres undefined) [ALLANTOIN], the Hepatotoxicity (Hepatotoxicity [1]) was “no drug-induced liver injury reported”, the Hepatotoxicity (Hepatotoxicity [2]) was “drug-induced liver injury reported” and the Hepatotoxicity (Hepatotoxicity [3]) was “no drug-induced liver injury reported”.
In the case of CC1(C)CCC2=C(O1)c1ccccc1C(=O)C2=O [LAPACHONE], the Hepatotoxicity (Hepatotoxicity [1]) is reported as “drug-induced liver injury reported”, the Hepatotoxicity (Hepatotoxicity [2]) is reported as “no drug-induced liver injury reported” and the Hepatotoxicity (Hepatotoxicity [3]) is reported as “no drug-induced liver injury reported”.
In the case of CNNCc1ccc(C(=O)NC(C)C)cc1 [PROCARBAZINE], the Hepatotoxicity (Hepatotoxicity [1]) is reported as “no drug-induced liver injury reported”, the Hepatotoxicity (Hepatotoxicity [2]) is reported as “drug-induced liver injury reported” and the Hepatotoxicity (Hepatotoxicity [3]) is reported as “no drug-induced liver injury reported”.
With GLATIRAMER ACETATE the Hepatotoxicity (Hepatotoxicity [1]) was “drug-induced liver injury reported”, the Hepatotoxicity (Hepatotoxicity [2]) was “drug-induced liver injury reported” and the Hepatotoxicity (Hepatotoxicity [3]) was “no drug-induced liver injury reported”.
With CCOC(=O)[C@H](CCc1ccccc1)N[C@@H](C)C(=O)N1Cc2ccccc2C[C@H]1C(=O)O the Hepatotoxicity (Hepatotoxicity [1]) was “drug-induced liver injury reported”, the Hepatotoxicity (Hepatotoxicity [2]) was “no drug-induced liver injury reported” and the Hepatotoxicity (Hepatotoxicity [3]) was “no drug-induced liver injury reported”.
CCOC(=O)CN[C@@H](C(=O)N1CC[C@H]1C(=O)NCc1ccc(/C(N)=N\O)cc1)C1CCCCC1 [XIMELAGATRAN] was tested, and the Hepatotoxicity (Hepatotoxicity [1]) was “drug-induced liver injury reported”, the Hepatotoxicity (Hepatotoxicity [2]) was “no drug-induced liver injury reported” and the Hepatotoxicity (Hepatotoxicity [3]) was “no drug-induced liver injury reported”.
With O=C(NCCO[N+](=O)[O-])c1cccnc1 [NICORANDIL] the Hepatotoxicity (Hepatotoxicity [1]) was “no drug-induced liver injury reported”, the Hepatotoxicity (Hepatotoxicity [2]) was “drug-induced liver injury reported” and the Hepatotoxicity (Hepatotoxicity [3]) was “no drug-induced liver injury reported”.
With CNC(=O)[C@H](Cc1c[nH]c2ccccc12)NC(=O)[C@@H](CC(=O)NO)CC(C)C [ILOMASTAT] the Hepatotoxicity (Hepatotoxicity [1]) was “no drug-induced liver injury reported”, the Hepatotoxicity (Hepatotoxicity [2]) was “drug-induced liver injury reported” and the Hepatotoxicity (Hepatotoxicity [3]) was “no drug-induced liver injury reported”.
CCN(CC)C(=O)/C(C#N)=C/c1cc(O)c(O)c([N+](=O)[O-])c1 [ENTACAPONE] was tested, and the Hepatotoxicity (Hepatotoxicity [1]) was “drug-induced liver injury reported”, the Hepatotoxicity (Hepatotoxicity [2]) was “drug-induced liver injury reported” and the Hepatotoxicity (Hepatotoxicity [3]) was “no drug-induced liver injury reported”.
In the case of CC(=O)CC(c1ccc([N+](=O)[O-])cc1)c1c(O)c2ccccc2oc1=O (centres undefined) [ACENOCOUMAROL], the Hepatotoxicity (Hepatotoxicity [1]) is reported as “drug-induced liver injury reported”, the Hepatotoxicity (Hepatotoxicity [2]) is reported as “no drug-induced liver injury reported” and the Hepatotoxicity (Hepatotoxicity [3]) is reported as “no drug-induced liver injury reported”.
With [H]/N=C(/N)N/C(=N/[H])NCCc1ccccc1 [PHENFORMIN] the Hepatotoxicity (Hepatotoxicity [1]) was “no drug-induced liver injury reported”, the Hepatotoxicity (Hepatotoxicity [2]) was “drug-induced liver injury reported” and the Hepatotoxicity (Hepatotoxicity [3]) was “no drug-induced liver injury reported”.
With COc1ccc(Cl)cc1C(=O)NCCc1ccc(S(=O)(=O)NC(=O)NC2CCCCC2)cc1 [GLYBURIDE] the Hepatotoxicity (Hepatotoxicity [1]) was “drug-induced liver injury reported”, the Hepatotoxicity (Hepatotoxicity [2]) was “drug-induced liver injury reported” and the Hepatotoxicity (Hepatotoxicity [3]) was “no drug-induced liver injury reported”.
In the case of CC(N/C(=N\C#N)Nc1ccncc1)C(C)(C)C (centres undefined) [PINACIDIL ANHYDROUS], the Hepatotoxicity (Hepatotoxicity [1]) is reported as “drug-induced liver injury reported”, the Hepatotoxicity (Hepatotoxicity [2]) is reported as “drug-induced liver injury reported” and the Hepatotoxicity (Hepatotoxicity [3]) is reported as “no drug-induced liver injury reported”.
With CC(=O)O[C@H](CC(=O)[O-])C[N+](C)(C)C [ACETYLCARNITINE] the Hepatotoxicity (Hepatotoxicity [1]) was “no drug-induced liver injury reported”, the Hepatotoxicity (Hepatotoxicity [2]) was “drug-induced liver injury reported” and the Hepatotoxicity (Hepatotoxicity [3]) was “no drug-induced liver injury reported”.
CC1(C)S[C@@H]2[C@H](NC(=O)Cc3ccccc3)C(=O)N2[C@H]1C(=O)O [PENICILLIN G] was tested, and the Hepatotoxicity (Hepatotoxicity [1]) was “drug-induced liver injury reported”, the Hepatotoxicity (Hepatotoxicity [2]) was “drug-induced liver injury reported” and the Hepatotoxicity (Hepatotoxicity [3]) was “drug-induced liver injury reported”.
With CC(C)[C@@H]1NC(=O)[C@H](CCCCN)NC(=O)[C@@H](Cc2c[nH]c3ccccc23)NC(=O)[C@H](Cc2ccc(O)cc2)NC(=O)[C@@H](NC(=O)[C@H](N)Cc2ccc3ccccc3c2)CSSC[C@@H](C(=O)N[C@H](C(N)=O)[C@@H](C)O)NC1=O [LANREOTIDE] the Hepatotoxicity (Hepatotoxicity [1]) was “drug-induced liver injury reported”, the Hepatotoxicity (Hepatotoxicity [2]) was “no drug-induced liver injury reported” and the Hepatotoxicity (Hepatotoxicity [3]) was “no drug-induced liver injury reported”.
With O=c1[nH]c(=O)n([C@H]2C[C@H](O)[C@@H](CO)O2)cc1F [FLOXURIDINE] the Hepatotoxicity (Hepatotoxicity [1]) was “drug-induced liver injury reported”, the Hepatotoxicity (Hepatotoxicity [2]) was “drug-induced liver injury reported” and the Hepatotoxicity (Hepatotoxicity [3]) was “no drug-induced liver injury reported”.
Cc1c(OCC(F)(F)F)ccnc1C[S+]([O-])c1nc2ccccc2[nH]1 (centres undefined) [LANSOPRAZOLE] was tested, and the Hepatotoxicity (Hepatotoxicity [1]) was “drug-induced liver injury reported”, the Hepatotoxicity (Hepatotoxicity [2]) was “no drug-induced liver injury reported” and the Hepatotoxicity (Hepatotoxicity [3]) was “no drug-induced liver injury reported”.
In the case of CCO [ALCOHOL], the Hepatotoxicity (Hepatotoxicity [1]; Liver) is reported as “drug-induced liver injury reported”, the Hepatotoxicity (Hepatotoxicity [2]; Liver) is reported as “drug-induced liver injury reported” and the Hepatotoxicity (Hepatotoxicity [3]; Liver) is reported as “drug-induced liver injury reported”.
In the case of O=C(O)CSCC(=O)NC1CCSC1=O (centres undefined) [ERDOSTEINE], the Hepatotoxicity (Hepatotoxicity [1]) is reported as “no drug-induced liver injury reported”, the Hepatotoxicity (Hepatotoxicity [2]) is reported as “drug-induced liver injury reported” and the Hepatotoxicity (Hepatotoxicity [3]) is reported as “no drug-induced liver injury reported”.
With OCC(O)CO [GLYCERIN] the Hepatotoxicity (Hepatotoxicity [1]) was “drug-induced liver injury reported”, the Hepatotoxicity (Hepatotoxicity [2]) was “drug-induced liver injury reported” and the Hepatotoxicity (Hepatotoxicity [3]) was “drug-induced liver injury reported”.
With COC(=O)[C@H]1[C@H]2C[C@@H]3c4[nH]c5cc(OC)ccc5c4CCN3C[C@H]2C[C@@H](OC(=O)c2cc(OC)c(OC)c(OC)c2)[C@@H]1OC [RESERPINE] the Hepatotoxicity (Hepatotoxicity [1]) was “no drug-induced liver injury reported”, the Hepatotoxicity (Hepatotoxicity [2]) was “drug-induced liver injury reported” and the Hepatotoxicity (Hepatotoxicity [3]) was “no drug-induced liver injury reported”.
COC(=O)C(c1ccccc1)C1CCCCN1 (centres undefined) [METHYLPHENIDATE] was tested, and the Hepatotoxicity (Hepatotoxicity [1]) was “drug-induced liver injury reported”, the Hepatotoxicity (Hepatotoxicity [2]) was “drug-induced liver injury reported” and the Hepatotoxicity (Hepatotoxicity [3]) was “no drug-induced liver injury reported”.
For C[C@@H](O)[C@H]1C(=O)N2C(C(=O)O)=C(S[C@@H]3CN[C@H](C(=O)N(C)C)C3)[C@H](C)[C@H]12 [MEROPENEM], the Hepatotoxicity (Hepatotoxicity [1]) was “drug-induced liver injury reported”, the Hepatotoxicity (Hepatotoxicity [2]) was “no drug-induced liver injury reported” and the Hepatotoxicity (Hepatotoxicity [3]) was “no drug-induced liver injury reported”.
With CCN[C@@H]1C[C@H](N)[C@@H](O[C@H]2OC(CN)=CC[C@H]2N)[C@H](O)[C@H]1O[C@H]1OC[C@](C)(O)[C@H](NC)[C@H]1O [NETILMICIN] the Hepatotoxicity (Hepatotoxicity [1]) was “drug-induced liver injury reported”, the Hepatotoxicity (Hepatotoxicity [2]) was “drug-induced liver injury reported” and the Hepatotoxicity (Hepatotoxicity [3]) was “no drug-induced liver injury reported”.
With CC1(C)C(/C=C/C=C/C=C/C=C2/N(CCCCS(=O)(=O)[O-])c3ccc4ccccc4c3C2(C)C)=[N+](CCCCS(=O)(=O)[O-])c2ccc3ccccc3c21.[Na+] [INDOCYANINE GREEN] the Hepatotoxicity (Hepatotoxicity [1]) was “no drug-induced liver injury reported”, the Hepatotoxicity (Hepatotoxicity [2]) was “drug-induced liver injury reported” and the Hepatotoxicity (Hepatotoxicity [3]) was “no drug-induced liver injury reported”.
For CCN1CCN(C(=O)N[C@@H](C(=O)N[C@@H]2C(=O)N3C(C(=O)O)=C(CSc4nnnn4C)CS[C@H]23)c2ccc(O)cc2)C(=O)C1=O [CEFOPERAZONE], the Hepatotoxicity (Hepatotoxicity [1]) was “drug-induced liver injury reported”, the Hepatotoxicity (Hepatotoxicity [2]) was “drug-induced liver injury reported” and the Hepatotoxicity (Hepatotoxicity [3]) was “no drug-induced liver injury reported”.
For COc1ccc(C(CN(C)C)C2(O)CCCCC2)cc1 (centres undefined) [VENLAFAXINE], the Hepatotoxicity (Hepatotoxicity [1]) was “drug-induced liver injury reported”, the Hepatotoxicity (Hepatotoxicity [2]) was “no drug-induced liver injury reported” and the Hepatotoxicity (Hepatotoxicity [3]) was “no drug-induced liver injury reported”.
For CNCC[C@@H](Oc1ccccc1C)c1ccccc1.Cl [ATOMOXETINE HYDROCHLORIDE], the Hepatotoxicity (Hepatotoxicity [1]) was “drug-induced liver injury reported”, the Hepatotoxicity (Hepatotoxicity [2]) was “no drug-induced liver injury reported” and the Hepatotoxicity (Hepatotoxicity [3]) was “no drug-induced liver injury reported”.
For CCC1(CC)C(=O)NCC(C)C1=O (centres undefined) [METHYPRYLON], the Hepatotoxicity (Hepatotoxicity [1]) was “no drug-induced liver injury reported”, the Hepatotoxicity (Hepatotoxicity [2]) was “drug-induced liver injury reported” and the Hepatotoxicity (Hepatotoxicity [3]) was “no drug-induced liver injury reported”.
With GOLD SODIUM THIOMALATE the Hepatotoxicity (Hepatotoxicity [1]) was “drug-induced liver injury reported”, the Hepatotoxicity (Hepatotoxicity [2]) was “drug-induced liver injury reported” and the Hepatotoxicity (Hepatotoxicity [3]) was “no drug-induced liver injury reported”.
For C[C@]12CC[C@H]3[C@@H](CCC4=CC(=O)CC[C@@]43C)[C@@H]1CC[C@@H]2O [TESTOSTERONE], the Hepatotoxicity (Hepatotoxicity [1]) was “drug-induced liver injury reported”, the Hepatotoxicity (Hepatotoxicity [2]) was “drug-induced liver injury reported” and the Hepatotoxicity (Hepatotoxicity [3]) was “drug-induced liver injury reported”.
Cc1c(N(C)C)c(=O)n(-c2ccccc2)n1C [AMINOPYRINE] was tested, and the Hepatotoxicity (Hepatotoxicity [1]) was “drug-induced liver injury reported”, the Hepatotoxicity (Hepatotoxicity [2]) was “drug-induced liver injury reported” and the Hepatotoxicity (Hepatotoxicity [3]) was “no drug-induced liver injury reported”.
With CN1C(=O)CC(=O)N(c2ccccc2)c2cc(Cl)ccc21 [CLOBAZAM] the Hepatotoxicity (Hepatotoxicity [1]) was “drug-induced liver injury reported”, the Hepatotoxicity (Hepatotoxicity [2]) was “no drug-induced liver injury reported” and the Hepatotoxicity (Hepatotoxicity [3]) was “no drug-induced liver injury reported”.
COc1nc(C)nc(Cl)c1N=C1NCCN1 [MOXONIDINE] was tested, and the Hepatotoxicity (Hepatotoxicity [1]) was “no drug-induced liver injury reported”, the Hepatotoxicity (Hepatotoxicity [2]) was “drug-induced liver injury reported” and the Hepatotoxicity (Hepatotoxicity [3]) was “no drug-induced liver injury reported”.
For O=P1(NCCCl)OCCCN1CCCl (centres undefined) [IFOSFAMIDE], the Hepatotoxicity (Hepatotoxicity [1]) was “drug-induced liver injury reported”, the Hepatotoxicity (Hepatotoxicity [2]) was “no drug-induced liver injury reported” and the Hepatotoxicity (Hepatotoxicity [3]) was “no drug-induced liver injury reported”.
OC(Cn1cncn1)(Cn1cncn1)c1ccc(F)cc1F [FLUCONAZOLE] was tested, and the Hepatotoxicity (Hepatotoxicity [1]; Liver) was “drug-induced liver injury reported”, the Hepatotoxicity (Hepatotoxicity [2]; Liver) was “drug-induced liver injury reported” and the Hepatotoxicity (Hepatotoxicity [3]; Liver) was “no drug-induced liver injury reported”.
